Results on 12 molecules are retold here after ChEMBL document CHEMBL1127904, “D-amino acids as novel P2/P3 ligands for inhibitors of HIV-1 protease” (Bioorg Med Chem Lett, 1994).

The target of experiment [1] is Human immunodeficiency virus type 1 protease (Human immunodeficiency virus 1, UniProt Q72874). Nature of the experiment: Concentration required for in vitro inhibitory activity against HIV-1 protease.
A further experiment deals with MT2. Briefly: Concentration required for in vitro antiviral activity against HIV-1 virus infected MT2 cells. The format is functional, cell-based. The note with it: Homo sapiens.
The test system of another experiment is CCRF-CEM. Briefly: Concentration required for in vitro antiviral activity against HIV-1 virus infected CEM cells. It is filed as functional, cell-based. To be noted: Homo sapiens.

Some results are limits rather than exact numbers.

In the case of `CC(=O)N[C@H](CS(=O)(=O)c1ccc2ccccc2c1)C(=O)N[C@@H](Cc1ccccc1)[C@H](O)Cc1ccccc1C(=O)NC(C)(C)C`, the IC50 in experiment [1] turned out to be 0.3 nM; in the experiment on MT2, 31 nM; with CCRF-CEM it was 11 nM.
In experiment [1], `CC(=O)N[C@@H](CC(=O)OCc1ccccc1)C(=O)N[C@@H](Cc1ccccc1)[C@H](O)Cc1ccccc1C(=O)NC(C)(C)C` showed an IC50 of 85 nM.
The molecule `CC(C)(C)NC(=O)c1ccccc1C[C@@H](O)[C@H](Cc1ccccc1)NC(=O)C(CC(N)=O)NC(=O)c1ccc2ccccc2n1` (single isomer, unassigned) registered an IC50 in the experiment on CCRF-CEM of 23 nM. This counts as double-digit nanomolar.
In experiment [1], `CC(C)(C)NC(=O)c1ccccc1C[C@@H](O)[C@H](Cc1ccccc1)NC(=O)[C@@H](CC(=O)OCc1ccccc1)NS(C)(=O)=O` showed an IC50 greater than 1000 nM.
The same measure, in the same setting: with `CC(=O)N[C@H](CC(=O)OCc1ccccc1)C(=O)N[C@@H](Cc1ccccc1)[C@H](O)Cc1ccccc1C(=O)NC(C)(C)C` the figure was greater than 1000 nM.
Take `CC(=O)N[C@@H](CSCc1ccccc1)C(=O)N[C@@H](Cc1ccccc1)[C@H](O)Cc1ccccc1C(=O)NC(C)(C)C`: the IC50 in experiment [1] is 45 nM; with MT2 it was 3120 nM; with CCRF-CEM it was 2910 nM.
In experiment [1], `CC(=O)N[C@H](CSCc1ccccc1)C(=O)N[C@@H](Cc1ccccc1)[C@H](O)Cc1ccccc1C(=O)NC(C)(C)C` had a half-maximal inhibitory concentration (IC50) greater than 1000 nM.
As to `CC(C)(C)NC(=O)c1ccccc1C[C@@H](O)[C@H](Cc1ccccc1)NC(=O)[C@H](CC(=O)OCc1ccccc1)NC(N)=O`, the values for the IC50 (in experiment [1]; with MT2; in the experiment on CCRF-CEM) were 51 nM, 11900 nM and 22400 nM, respectively.
For the molecule `CC(=O)N[C@@H](CS(=O)(=O)c1ccc2ccccc2n1)C(=O)N[C@@H](Cc1ccccc1)[C@H](O)Cc1ccccc1C(=O)NC(C)(C)C`, the IC50 in experiment [1] came to 0.3 nM; in the experiment with MT2, 180 nM; in the experiment with CCRF-CEM, 53 nM.
The like results for `CC(C)(C)NC(=O)c1ccccc1C[C@@H](O)[C@H](Cc1ccccc1)NC(=O)[C@H](CC(=O)OCc1ccccc1)NS(C)(=O)=O` were, in that order, 5.4 nM, 1270 nM and 1090 nM.
As for `CC(C)(C)NC(=O)c1ccccc1C[C@@H](O)[C@H](Cc1ccccc1)NC(=O)[C@H](CC(=O)NCc1ccc2ccccc2n1)NS(C)(=O)=O`, the IC50 was 8 nM in experiment [1], 1440 nM with MT2 and 580 nM in the experiment on CCRF-CEM.
The like results for `CC(=O)N[C@@H](CSc1ccc2ccccc2c1)C(=O)N[C@@H](Cc1ccccc1)[C@H](O)Cc1ccccc1C(=O)NC(C)(C)C` were, in that order, 42 nM, 1000 nM and 1130 nM.
